Reference: US20210395650A1, “COMPOUNDS STABILIZING HYDROLASES IN LIQUIDS” (BASF SE, priority 2018, published 2021)

Target: T1, Savinase® 16.0L (Lederbergia lenta, UniProt P29600)
T1 construct: purchased Sigma-Aldrich
T1 sequence (P29600 1-269): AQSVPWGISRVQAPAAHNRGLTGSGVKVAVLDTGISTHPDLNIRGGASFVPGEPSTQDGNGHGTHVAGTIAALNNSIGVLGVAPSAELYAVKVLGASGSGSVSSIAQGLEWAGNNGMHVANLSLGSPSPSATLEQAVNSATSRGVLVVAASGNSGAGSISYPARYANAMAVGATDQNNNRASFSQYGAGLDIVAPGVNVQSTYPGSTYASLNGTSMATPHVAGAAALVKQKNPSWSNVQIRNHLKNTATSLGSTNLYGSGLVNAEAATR
Test: Protease storage stability in liquid formulations at 37° C. (Suc-AAPF-pNA assay)
Type: biochemical
Details: 0.7 wt% Savinase 16.0 L
Procedure: The storage stability of protease was assessed at 37° C.
Base test formulations were manufactured by making base formulations I to V by mixing the components according to Table 1.
Protease used: Savinase® 16.0L (CAS-No. 9014-01-1, EC-No. 232-752-2) was purchased from Sigma-Aldrich.
The respective component (a) or comparative compound was added, if applicable, to the respective base formulation in amounts as indicated in Table 1.
The amount of protease as provided in Table 1 refers to active protein.
Water was added to accomplish the balance to 100.
Savinase activity at certain points in time as indicated in Table 2 was be determined by employing Succinyl-Ala-Ala-Pro-Phe-p-nitroanilide (Suc-AAPF-pNA, short AAPF) as substrate. pNA is cleaved from the substrate molecule by proteolytic cleavage, resulting in release of yellow color of free pNA which was determined by measuring OD405. Measurements were done at 20° C.
The proteolytic activity values provided in Table 3 were calculated referring to the 100% value determined in the reference formulation at the time 0.
The nomenclature of formulations is as follows: the Roman number before the full stop characterizes the base formulation, the Arabian number the type of compound (A. # compound according to invention (component (a)); (B. #) comparative compound).

[1] = base formulation I, 2.5 wt% compound, 3 d
[2] = base formulation I, 2.5 wt% compound, 7 d
[3] = base formulation I, 2.5 wt% compound, 14 d
[4] = base formulation I, 2.5 wt% compound, 21 d
[5] = base formulation I, 2.5 wt% compound, 28 d
[6] = base formulation I, 2.5 wt% compound, 35 d
[7] = base formulation I, 2.5 wt% compound, T0
[8] = base formulation III, 2.0 wt% compound, 3 d
[9] = base formulation III, 2.0 wt% compound, 7 d
[10] = base formulation III, 2.0 wt% compound, 14 d
[11] = base formulation III, 2.0 wt% compound, 21 d
[12] = base formulation III, 2.0 wt% compound, 28 d
[13] = base formulation III, 2.0 wt% compound, 35 d
[14] = base formulation III, 2.0 wt% compound, T0
[15] = base formulation II, 2.5 wt% compound, 3 d
[16] = base formulation II, 2.5 wt% compound, 7 d
[17] = base formulation II, 2.5 wt% compound, 14 d
[18] = base formulation II, 2.5 wt% compound, 21 d
[19] = base formulation II, 2.5 wt% compound, 28 d
[20] = base formulation II, 2.5 wt% compound, 35 d
[21] = base formulation II, 2.5 wt% compound, T0

| Structure (SMILES) | protease activity in the course of time of storage at 37° C. [1] | protease activity in the course of time of storage at 37° C. [2] | protease activity in the course of time of storage at 37° C. [3] | protease activity in the course of time of storage at 37° C. [4] | protease activity in the course of time of storage at 37° C. [5] | protease activity in the course of time of storage at 37° C. [6] | protease activity in the course of time of storage at 37° C. [7] | protease activity in the course of time of storage at 37° C. [8] | protease activity in the course of time of storage at 37° C. [9] | protease activity in the course of time of storage at 37° C. [10] | protease activity in the course of time of storage at 37° C. [11] | protease activity in the course of time of storage at 37° C. [12] | protease activity in the course of time of storage at 37° C. [13] | protease activity in the course of time of storage at 37° C. [14] | protease activity in the course of time of storage at 37° C. [15] | protease activity in the course of time of storage at 37° C. [16] | protease activity in the course of time of storage at 37° C. [17] | protease activity in the course of time of storage at 37° C. [18] | protease activity in the course of time of storage at 37° C. [19] | protease activity in the course of time of storage at 37° C. [20] | also measured |
| --- | --- | --- | --- | --- | --- | --- | --- | --- | --- | --- | --- | --- | --- | --- | --- | --- | --- | --- | --- | --- | --- |
| CCCOC(=O)CC(O)(CC(=O)OCCC)C(=O)OCCC [A.2, Tripropylcitrate] | 100% | 94% | 91% | 85% | 80% | 76% | 101% | 100% | 100% | 96% | 91% | 88% | 84% | 102% | – | – | – | – | – | – | – |
| CCOC(=O)CC(CC(=O)OCC)(OC(C)=O)C(=O)OCC [A.5, Acetyltriethylcitrate] | 96% | 94% | 90% | 85% | 82% | 78% | 98% | 97% | 95% | 91% | 86% | 81% | 77% | 99% | 101% | 100% | 94% | 90% | 85% | 81% | protease activity in the course of time of storage at 37° C. [21]: 102% |
| CC(=O)OCC(COC(C)=O)OC(C)=O [B.4, glyceroltriacetate, reference compound] | 91% | 84% | 70% | 66% | 61% | 56% | – | – | – | – | – | – | – | – | 87% | 80% | 73% | 58% | 57% | 54% | – |
| CCCCOC(=O)CC(CC(=O)OCCCC)(OC(C)=O)C(=O)OCCCC [A.4, Acetyltributylcitrate] | 100% | 96% | 92% | 87% | 83% | 79% | – | – | – | – | – | – | – | – | – | – | – | – | – | – | – |
| CCOC(=O)CC(O)(CC(=O)OCC)C(=O)OCC [A.1, Triethylcitrate] | 96% | 93% | 89% | 83% | 79% | 72% | 100% | 98% | 94% | 91% | 87% | 84% | 81% | 100% | 100% | 96% | 93% | 89% | 83% | 78% | protease activity in the course of time of storage at 37° C. [21]: 100%; protease activity in the course of time of storage at 37° C. (base formulation IV, 2.0 wt% compound, 3 d): 96%; protease activity in the course of time of storage at 37° C. (base formulation IV, 2.0 wt% compound, 7 d): 93%; protease activity in the course of time of storage at 37° C. (base formulation IV, 2.0 wt% compound, 14 d): 88%; protease activity in the course of time of storage at 37° C. (base formulation IV, 2.0 wt% compound, 21 d): 82%; protease activity in the course of time of storage at 37° C. (base formulation IV, 2.0 wt% compound, 28 d): 79%; protease activity in the course of time of storage at 37° C. (base formulation IV, 2.0 wt% compound, 35 d): 74%; protease activity in the course of time of storage at 37° C. (base formulation IV, 2.0 wt% compound, T0): 98%; protease activity in the course of time of storage at 37° C. (base formulation V, 2.0 wt% compound, 3 d): 94%; protease activity in the course of time of storage at 37° C. (base formulation V, 2.0 wt% compound, 7 d): 90%; protease activity in the course of time of storage at 37° C. (base formulation V, 2.0 wt% compound, 14 d): 86%; protease activity in the course of time of storage at 37° C. (base formulation V, 2.0 wt% compound, 21 d): 83%; protease activity in the course of time of storage at 37° C. (base formulation V, 2.0 wt% compound, 28 d): 79%; protease activity in the course of time of storage at 37° C. (base formulation V, 2.0 wt% compound, 35 d): 75%; protease activity in the course of time of storage at 37° C. (base formulation V, 2.0 wt% compound, T0): 97% |
| CCOC(=O)CC(O)(CC(=O)O)C(=O)O (stereo not drawn) [A.6, Monoethylcitrate] | – | – | – | – | – | – | – | 96% | 92% | 86% | 82% | 79% | 76% | 99% | 102% | 100% | 95% | 92% | 87% | 83% | protease activity in the course of time of storage at 37° C. [21]: 101% |
